Paper PMC9619402 (Journal of Medicinal Chemistry, 2022)
Converted amounts (≈) assume the structure as drawn. Read-outs that look alike come from different tables or passages of the source. Marks after values point to notes of the source that are not given here.

Columns and labels:
[1] = tested on: 468 kinases (scanMax panel); assay: Eurofins/DiscoverX scanMax panel (KINOMEscan) kinome profile; format: binding; settings: fraction of kinases bound >50%
Thermodynamic solubility = format: physicochemical; settings: pH 7, PBS, 24 h room temperature; average of two experiments; read-out: aq. solubility
Description: The samples were then centrifuged at >10,000 rpm for 10 min to pellet any remaining solid. […] To prepare the standard, an 8-point, 1:3 dilution curve was prepared in DMSO with a top concentration of 1 mM, which was then diluted to 1:100 in acetonitrile containing 2 μM of carbamazepine. Standards and samples were analyzed via LCMS/MS. The compound carbamazepine peak area ratios were calculated, and the test article solubility was determined by interpolation from the standard curve.

[2] = Microsomal stability, human microsomes; settings: pH 7.4
Description: (§3) After mixing thoroughly, the T = 0 sample (40 μL) was immediately quenched into an 80 μL ice-cold methanol containing a 4 μM internal standard (carbamazepine). Three further samples were quenched in the same way at T = 3, 9, and 30 min. Samples were incubated on ice for 30 min before centrifugation at 4700 rpm for 20 min. The supernatant was analyzed via LCMS/MS, and compound/carbamazepine peak area ratios were calculated to determine the rate of substrate depletion.

In vivo DMPK, IV dosing = settings: male, Sprague-Dawley, rat
Description: In vivo studies were carried out under appropriate licenses at Pharmidex (U.K.), Sygnature Discovery (U.K.), or Sai Life (India) using male Sprague-Dawley rats. […] Serial plasma samples were obtained at predetermined time points and then stored at −20 °C. Samples were then thawed, protein-precipitated with acetonitrile followed by LCMS/MS quantification.

[3] = Microsomal stability, rat microsomes; settings: pH 7.4
Description: as §3

[4] = molecular target: PAK pLIMK2 (PAK-phosphorylated LIMK2) (Homo sapiens, UniProt P53671); format: biochemical; settings: 6 nM LIMK2 + 0.2 nM PAK1 kinase domain; mean ± SEM
[5] = tested on: p-cofilin levels in SH-SY5Y cells; assay: cells; settings: Homo sapiens, 2 h, read-out: AlphaLISA pIC50 p-cofilin (converted)
Description: SH-SY5Y cells were plated into a 96-well plate at 20,000 cells/well. The next day, compounds were prepared in an 8-point, 3-fold serial dilution in DMSO and then further diluted to 20-fold in DMEM/F12 with 10% FBS, 1% antibiotics. SH-SY5Y cell media was replaced with fresh DMEM/F12 media containing 10% FBS and 1% antibiotics. Compounds were added to the SH-SY5Y cells in duplicate at a final compound concentration of 10 μM to 3 nM. LIMKi3 (10 μM) was used as a positive control and 0.5% DMSO was used as a negative control. Cells were placed in the incubator for 2 h, after which the media was removed, and the cells were lysed using 50 μL of AlphaLISA 1× lysis buffer (Perkin Elmer) containing protease inhibitor cocktail (Sigma-Aldrich, Dorset, U.K.) and Pierce phosphatase inhibitor cocktail (Thermofisher, U.K.). Cells were placed on a plate shaker at 350 rpm at RT. Ten microliters of total cell lysate was then transferred to a clean, flat-bottom, white 384-well plate. An acceptor bead solution was made consisting of reaction buffer 1, reaction buffer 2, activation buffer, and acceptor beads from the p-Cofilin SureFire Ultra assay kit (Perkin Elmer, Cat# ALSU-PCOF-A500). To each well in the assay, 5 μL of the acceptor mix was added to the wells under dim light; the plate was placed on a plate shaker for 2 min at 450 rpm, centrifuged briefly, and the plate was incubated at RT for 1 h. A donor solution, consisting of dilution buffer and donor beads, was added at 5 μL/well, mixed on a plate shaker, centrifuged briefly, and incubated at RT for 1 h. Finally, the plate was read on a Pherastar reader (BMG Labtech Ltd., Aylesbury, U.K.) using an AlphaLISA cartridge and AlphaLISA plate settings.

[6] = molecular target: LIMK2 (LIMK2_347–659, kinase catalytic domain) (Homo sapiens, UniProt P53671); format: biochemical
[7] = molecular target: T1, LIMK2 (NanoLuc LIMK2 kinase fusion) (Homo sapiens, UniProt P53671); format: cell-based; settings: HEK293 cells, 2 h; mean ± SEM
T1 construct: host or cells: HEK293
Description: (§1) HEK293 cells were resuspended in growth media following routine trypsinization, neutralization, and sedimentation techniques. Cell density was adjusted to 1 ×10^5 cells/mL for each transfection in a total of 25 mL media. The transfection mix was added directly to the cells and mixed gently by inversion. The cells were then plated into T-75 tissue culture flasks and incubated for 20 h.
(§2) Kit components were purchased from Promega (Hampshire, U.K.). […] NanoBRET Tracer #10 (27.5 μL) was diluted in 192.5 μL of DMSO for use as a positive control, which was further diluted with 880 μL of tracer dilution buffer. For negative control, 20 μL of DMSO was added to 80 μL of tracer dilution buffer. LIMK1/2-transfected HEK293 cells were trypsinized, centrifuged, and resuspended in 10 mL of Opti-MEM. Extracellular NanoLuc inhibitor was added at 1:10,000 dilution to the cells, after which 85 μL of cells/well were plated into flat-bottomed, white, 96-well plates. For positive control wells, 5 μL of NanoBRET Tracer #10 was added to wells without compound. For negative controls, the DMSO/tracer dilution buffer solution was added to wells without compound. For test compounds, 10 μL of diluted compounds from the intermediate plate were added in duplicate or DMSO (for control wells) at a final concentration of 0.5% DMSO in Opti-MEM. Plates were incubated at 37 °C and 5% CO2 for 2 h. […] A solution of Nano-Glo substrate was made consisting of 72 μL of Nano-Glo substrate and 11.93 mL of Opti-MEM (without phenol red) and mixed gently by inversion 5–10 times.

[8] = molecular target: T2, LIMK1 (NanoLuc LIMK1 kinase fusion) (Homo sapiens, UniProt P53667); format: cell-based; settings: HEK293 cells, 2 h; mean ± SEM
T2 construct: host or cells: HEK293
Description: as §1, §2

[9] = molecular target: PAK pLIMK1 (PAK-phosphorylated LIMK1) (Homo sapiens, UniProt P53667); assay: RapidFire mass spectrometry kinase assay, PAK-phosphorylated LIMK1; settings: 5 nM LIMK1 + 0.4 nM PAK1 kinase domain; mean ± SEM
Caco-2 permeability = format: in vitro ADME; settings: for efflux ratio: Caco-2, Table S1
[10] = molecular target: LIMK1 (LIMK1_330–637, kinase catalytic domain) (Homo sapiens, UniProt P53667); settings: for preference between LIMK1 and LIMK2: RapidFire, LIMK1 versus LIMK2, at best
[11] = 15 nM LIMK2 catalytic domain, 4 μM CFL1, 2 mM ATP, mean ± SEM, pIC50 greater than 8.1 treat with caution
[12] = 40 nM LIMK1 catalytic domain, 4 μM CFL1, 2 mM ATP, mean ± SEM, at least three experiments unless footnoted, pIC50 greater than 7.7 treat with caution

Sequence of LIMK2 (LIMK2_347–659, kinase catalytic domain) (P53671 326-638 limits assumed): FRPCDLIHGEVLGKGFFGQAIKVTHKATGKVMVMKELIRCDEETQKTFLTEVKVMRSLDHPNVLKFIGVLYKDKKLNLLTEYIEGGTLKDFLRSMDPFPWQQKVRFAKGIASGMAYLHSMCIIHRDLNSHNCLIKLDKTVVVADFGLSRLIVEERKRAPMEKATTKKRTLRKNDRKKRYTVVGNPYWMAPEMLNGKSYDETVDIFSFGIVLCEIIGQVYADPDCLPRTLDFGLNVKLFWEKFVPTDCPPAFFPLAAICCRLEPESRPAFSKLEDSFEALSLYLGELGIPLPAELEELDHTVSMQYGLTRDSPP
Sequence of PAK pLIMK2 (PAK-phosphorylated LIMK2) (P53671 326-638 limits assumed): as above
Sequence of PAK pLIMK1 (PAK-phosphorylated LIMK1) (P53667 330-637): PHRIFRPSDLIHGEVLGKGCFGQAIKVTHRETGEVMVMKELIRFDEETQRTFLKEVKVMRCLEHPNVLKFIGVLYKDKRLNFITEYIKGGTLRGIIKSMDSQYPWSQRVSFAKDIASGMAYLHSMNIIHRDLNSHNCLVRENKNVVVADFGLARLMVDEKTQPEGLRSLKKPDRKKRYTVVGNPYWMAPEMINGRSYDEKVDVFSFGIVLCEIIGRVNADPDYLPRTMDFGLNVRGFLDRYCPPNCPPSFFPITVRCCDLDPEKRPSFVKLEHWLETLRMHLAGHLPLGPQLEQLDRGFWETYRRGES
Sequence of LIMK1 (LIMK1_330–637, kinase catalytic domain) (P53667 330-637): as above
T2 sequence (P53667 whole entry, the tested form may be a part): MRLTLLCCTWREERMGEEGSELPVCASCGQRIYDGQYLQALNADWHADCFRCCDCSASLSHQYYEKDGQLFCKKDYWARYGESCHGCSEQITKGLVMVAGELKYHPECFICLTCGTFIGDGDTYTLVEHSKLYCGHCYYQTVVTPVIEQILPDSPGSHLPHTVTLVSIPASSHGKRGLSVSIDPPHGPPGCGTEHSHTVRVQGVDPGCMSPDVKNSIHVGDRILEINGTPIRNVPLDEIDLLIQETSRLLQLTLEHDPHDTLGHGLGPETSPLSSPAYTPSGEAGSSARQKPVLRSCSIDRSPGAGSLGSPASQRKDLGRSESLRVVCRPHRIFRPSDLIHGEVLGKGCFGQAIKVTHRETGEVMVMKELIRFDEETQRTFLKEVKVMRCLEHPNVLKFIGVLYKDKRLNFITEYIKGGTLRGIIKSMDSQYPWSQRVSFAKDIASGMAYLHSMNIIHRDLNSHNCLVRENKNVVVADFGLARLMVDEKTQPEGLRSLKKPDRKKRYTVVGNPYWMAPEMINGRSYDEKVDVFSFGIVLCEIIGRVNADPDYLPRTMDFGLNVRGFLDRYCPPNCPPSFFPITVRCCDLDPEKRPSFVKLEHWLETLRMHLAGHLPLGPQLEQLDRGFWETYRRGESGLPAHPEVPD
T1 sequence (P53671 whole entry, the tested form may be a part): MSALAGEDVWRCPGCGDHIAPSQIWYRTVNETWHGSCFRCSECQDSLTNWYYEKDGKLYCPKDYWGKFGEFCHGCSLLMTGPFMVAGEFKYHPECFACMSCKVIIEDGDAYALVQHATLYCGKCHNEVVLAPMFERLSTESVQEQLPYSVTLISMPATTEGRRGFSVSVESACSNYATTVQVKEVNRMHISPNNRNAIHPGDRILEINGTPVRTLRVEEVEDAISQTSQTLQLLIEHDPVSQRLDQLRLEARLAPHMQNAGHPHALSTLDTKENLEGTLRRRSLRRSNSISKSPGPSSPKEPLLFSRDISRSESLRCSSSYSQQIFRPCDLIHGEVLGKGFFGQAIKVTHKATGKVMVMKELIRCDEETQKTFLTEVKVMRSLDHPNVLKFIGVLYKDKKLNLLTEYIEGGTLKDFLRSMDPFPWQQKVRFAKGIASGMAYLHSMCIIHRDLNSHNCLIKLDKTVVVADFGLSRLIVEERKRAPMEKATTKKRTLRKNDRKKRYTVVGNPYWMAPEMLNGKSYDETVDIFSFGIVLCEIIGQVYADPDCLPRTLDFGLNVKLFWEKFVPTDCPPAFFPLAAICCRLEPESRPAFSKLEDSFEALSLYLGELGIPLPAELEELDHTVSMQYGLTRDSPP

Row | Structure (SMILES) | RapidFire pIC50 PAK pLIMK2 [4] | IC50 [5] | RapidFire pIC50 LIMK2 [6, 11] | NanoBRET pIC50 LIMK2 [7] | NanoBRET pIC50 LIMK1 [8] | RapidFire pIC50 PAK pLIMK1 [9] | RapidFire pIC50 LIMK1 [10, 12] | other results
1 | CCn1c(=O)c(-c2ccc(Cl)cc2Cl)cc2cnc(Nc3ccc(N4CCNCC4)c(F)c3)nc21 [Compound 1] |  |  |  |  |  |  |  | kinome S50 ([1]; 1000 nM): 0.54 (468, 1000 nM)
2 | Cc1c[nH]c2ncnc(-c3ccc(NC(=O)N(CCO)c4ccccc4)cc3)c12 [Compound 8] |  |  |  |  |  |  |  | solubility at 24 h (Thermodynamic solubility): 28 µM (≈ 10.8 µg/mL); microsomal CLint at 0.5 h, 4 µM [2]: 8 µL/min/mg; clearance (In vivo DMPK, IV dosing): 4.2 mL/min/kg; half-life (In vivo DMPK, IV dosing): 2.2 h; Vd (In vivo DMPK, IV dosing; 1 mg/kg): 0.5 L/kg; microsomal CLint at 0.5 h, 4 µM [3]: 18 µL/min/mg
3 | Cc1cc(Nc2cc(CN3CCOCC3)c3nc(C)c(Cc4ccc(Cl)cc4F)n3n2)n[nH]1 [Compound 13, gandotinib] | 5.22 ± 0.05 | > 10000 nM | <5 | <5 | <5 | 5.98 ± 0.06 | 6.40 ± 0.03 | efflux ratio (Caco-2 permeability): high efflux; efflux ratio (Caco-2 permeability; human, read-out: Efflux ratio): 10.2; preference between LIMK1 and LIMK2 [10]: ~10 fold
4 | Cc1cc(Nc2nc(N[C@@H](C)c3ccc(F)cc3)c(C#N)cc2F)n[nH]1 [Compound 12] | 5.18 ± 0.03 | > 10000 nM |  | <5 | <5 | 6.52 ± 0.01 |  | RapidFire pIC50 LIMK2 [6]: 5.71 ± 0.14; efflux ratio (Caco-2 permeability; human, read-out: Efflux ratio): 1.01; RapidFire pIC50 LIMK1 [10]: 6.82 ± 0.06; preference between LIMK1 and LIMK2 [10]: ~10 fold
5 | Cc1c[nH]c2ncnc(N3CCN(C(=O)Nc4cccc(OC(=O)N(C)C)c4)[C@@H](C)C3)c12 [Compound 6] | 7.68 ± 0.07 | 3.02 nM |  | 8.61 ± 0.04 | 8.28 ± 0.08 | 7.68 ± 0.04 |  | RapidFire pIC50 LIMK2 [6]: 8.74 ± 0.12; RapidFire pIC50 LIMK1 [10]: 8.70 ± 0.07
6 | O=C(Nc1ncc(-c2cc(C(F)F)nn2-c2c(Cl)cccc2Cl)s1)C1CC1 [Compound 2] | 6.56 ± 0.06 | 39.8 nM | 7.52 ± 0.04 | 7.79 ± 0.02 | 7.09 ± 0.08 | 7.00 ± 0.03 | 7.75 ± 0.04 | 
7 | CC(C)C(=O)Nc1ncc(-c2cc(C(F)F)nn2-c2c(Cl)cccc2Cl)s1 [Compound 4] |  |  |  |  |  |  |  | Vd (In vivo DMPK, IV dosing): 2 L/kg; half-life (In vivo DMPK, IV dosing; 0.2 mg/kg): 1.1 h; Papp A→B (Caco-2 permeability; human, Caco-2, A – B): 8.8 ×10⁻⁶ cm/s; Papp B→A (Caco-2 permeability; human, Caco-2, B – A): 12.4 ×10⁻⁶ cm/s
8 | CCNC(=O)Nc1ncc(-c2cc(-c3c(C)cc(OC)cc3C)nc(-c3cnccn3)n2)s1 [Compound 3] | 6.15 ± 0.04 | 457 nM | 6.87 ± 0.10 | 6.33 ± 0.12 | 6.45 ± 0.14 | 5.64 ± 0.06 | 7.25 ± 0.06 | 
9 | CCc1cccc(CC)c1NC(=O)N1Cc2n[nH]c(NC(=O)c3ccc(N4CCN(C)CC4)cc3)c2C1 [Compound 11] | <5 | > 10000 nM | 5.10 ± 0.04 | <5 | <5 | 6.24 ± 0.04 | 6.39 ± 0.03 | efflux ratio (Caco-2 permeability): high efflux; efflux ratio (Caco-2 permeability; human, read-out: Efflux ratio): 279; preference between LIMK1 and LIMK2 [10]: ~10 fold
10 | Cn1cc(-c2[nH]c3cc(NC(=O)[C@H](N)C4CCCCC4)cc4c3c2C=NNC4=O)cn1 [Compound 16] | 5.47 ± 0.04 | > 10000 nM | <5 | 6.56 ± 0.02 | 6.40 ± 0.04 | 6.76 ± 0.12 | 6.09 ± 0.07 | 
11 | Cc1c[nH]c2ncnc(N3CCC(CN)(C(=O)Nc4cccc(OC(=O)N(C)C)c4)CC3)c12 [Compound 7] | 6.51 ± 0.04 |  |  | 8.17 ^d |  |  |  | solubility at 24 h (Thermodynamic solubility): 451 µM (≈ 204 µg/mL); kinome S50 ([1]; 300 nM): 0.13 (468, 300 nM); microsomal CLint at 0.5 h, 4 µM [2]: 3 µL/min/mg; Vd (In vivo DMPK, IV dosing): 6.4 L/kg; clearance (In vivo DMPK, IV dosing): 98.1 mL/min/kg; half-life (In vivo DMPK, IV dosing; 0.5 mg/kg): 1.3 h; microsomal CLint at 0.5 h, 4 µM [3]: 50 µL/min/mg
12 | CN1C(=O)[C@@H](N2CCc3c(nn(Cc4ccccc4)c3C(N)=O)C2=O)COc2cc(Cl)ccc21 [Compound 17] |  |  |  |  |  |  |  | kinome S50 ([1]; 1000 nM): 0.01 (468, 1,000 nM)
